Results as given in US20250066346A1, “SOLID FORMS OF A BENZTHIAZOLE-PIPERAZINYL-OXAZOLE COMPOUND AND METHODS OF USE THEREOF” (Hepagene Therapeutics (HK) Limited, priority 2022, published 2025).

Assay: Form conversion by variable-temperature XRPD (VT-XRPD)
Format: physicochemical
Conditions: for form after exposing to ambient conditions: ambient conditions for about 10 min; for form change after heating to 120° C. and cooling to 30° C.: with N2 protection, VT-XRPD
Method: […] 22.
Based on data above, it would convert to dehydrate state (HCl salt Form C) at low humidity and back to hydrate at high humidity.
HBr salt Form E was observed after N2 purging HBr salt Form D for 20 min at 30° C. via variable-temperature XRPD (VT-XRPD) shown in FIG. 23.
Based on data above, it would convert to dehydrate state (HBr salt Form E) at low humidity and back to hydrate at high humidity.

form after exposing to ambient conditions	form change after heating to 120° C. and cooling to 30° C.	Structure (SMILES)
HBr salt Form D was re-obtained	no form change occurred	COc1cc(C(=O)O)cc2sc(N3CCN(Cc4c(-c5c(Cl)cccc5Cl)noc4C4CC4)C[C@H]3C)nc12 [Form E, (R)-2-(4-((5-cyclopropyl-3-(2,6-dichlorophenyl)isoxazol-4-yl)methyl)-2-methylpiperazin-1-yl)-4-methoxybenzo[d]thiazole-6-carboxylic acid]
HCl salt Form B was re-obtained	no form change occurred	COc1cc(C(=O)O)cc2sc(N3CCN(Cc4c(-c5c(Cl)cccc5Cl)noc4C4CC4)C[C@H]3C)nc12 [Form C, (R)-2-(4-((5-cyclopropyl-3-(2,6-dichlorophenyl)isoxazol-4-yl)methyl)-2-methylpiperazin-1-yl)-4-methoxybenzo[d]thiazole-6-carboxylic acid]
